Measurements published in US20200038478A1, “POLYPEPTIDE AND COMPOSITION THEREOF FOR TREATING DISEASES OF METABOLIC SYSTEM” (WUHAN GRECTECH CO., LTD., priority 2017, published 2020).
Bridge positions count the residues as written; N and C are the ends. Square brackets hold non-standard residues; d marks the D form. Ends that are not written are not given here. Met(O) = CS(=O)CC[C@H](N)C(=O)O

What was measured:
Format in all cases: in vivo, Kunming white mice
[1] = tested on: normal mice; assay: Hypoglycemic effect of synthetic polypeptides on normal mice after subcutaneous injection (Example 9); details: 1 mg/mL at 0.05 ml/10 g, single subcutaneous injection on the back; for Blood glucose level prior to administration: baseline
[2] = tested on: normal mice; assay: Hypoglycemic effect of polypeptides on normal mice after tail vein injection (Example 4); details: 1 mg/mL at 0.05 ml/10 g, single tail vein injection; for Blood glucose level prior to administration: baseline
[3] = tested on: normal mice; assay: Hypoglycemic effect on normal mice after tail vein, subcutaneous and intramuscular injection (Example 8); details: 1 mg/mL at 0.05 ml/10 g once; for Blood glucose level prior to administration: baseline
[4] = tested on: normal mice; assay: Hypoglycemic effect on normal mice after subcutaneous injection on the back (Example 5); details: for Blood glucose level at 15 min after administration / Blood glucose level at 30 min after administration / Blood glucose level at 45 min after administration / Blood glucose level at 60 min after administration / Blood glucose level prior to administration: single subcutaneous injection on the back; for Blood glucose level prior to administration: baseline
[5] = tested on: normal mice; assay: Polypeptide vs insulin on normal mice after tail vein injection (Example 10)
[6] = Group B, subcutaneous injection on the back
[7] = Group C, intramuscular injection in the lateral thigh
[8] = Group A high-dose, 1 mg/mL at 0.10 ml/10 g
[9] = Group B medium-dose, 1 mg/mL at 0.05 ml/10 g
[10] = Group C low-dose, 1 mg/mL at 0.025 ml/10 g
[11] = single tail vein injection, polypeptide 2 mg/mL at 0.05 ml/10 g (10 mg/kg), insulin 0.5 U/mL (2.5 U/kg)

ASCNGVCSPFDIPPCGTPLCRCIPVGLVIGNCRNPYG (disulfide 15-32, 3-20, 7-22) [SEQ ID No. 13]
Blood glucose level at 15 min after administration [1]: 6.1 ± 0.3 mmol/L
Blood glucose level at 30 min after administration [1]: 4.4 ± 0.4 mmol/L
Blood glucose level at 45 min after administration [1]: 3.5 ± 0.3 mmol/L
Blood glucose level at 60 min after administration [1]: 2.6 ± 0.3 mmol/L
Blood glucose level prior to administration [1]: 7.4 ± 0.6 mmol/L

ASCNGVCSPFDMPPCGTSACRCIPAGLFIGKCRNPYG (disulfide 15-32, 3-20, 7-22) [SEQ ID No. 17]
Blood glucose level at 15 min after administration [1]: 6.6 ± 0.5 mmol/L
Blood glucose level at 30 min after administration [1]: 4.9 ± 0.4 mmol/L
Blood glucose level at 45 min after administration [1]: 3.6 ± 0.3 mmol/L
Blood glucose level at 60 min after administration [1]: 3.0 ± 0.2 mmol/L
Blood glucose level prior to administration [1]: 8.2 ± 0.7 mmol/L

ASCNGVCSPFEIPPCGSPLCRCIPVGLVIGNCRNPYG (disulfide 15-32, 3-20, 7-22) [SEQ ID No. 21]
Blood glucose level at 15 min after administration [1]: 6.7 ± 0.4 mmol/L
Blood glucose level at 30 min after administration [1]: 5.2 ± 0.3 mmol/L
Blood glucose level at 45 min after administration [1]: 4.3 ± 0.2 mmol/L
Blood glucose level at 60 min after administration [1]: 3.6 ± 0.1 mmol/L
Blood glucose level prior to administration [1]: 7.8 ± 0.4 mmol/L

ASCNGVCSPFEMPPCGSSACRCIPVGLLIGYCRNPSG (disulfide 15-32, 3-20, 7-22; listed as Pisum sativum) [SEQ ID No. 5]
Blood glucose level at 15 min after administration [2]: 6.3 ± 0.3 mmol/L
Blood glucose level at 30 min after administration [2]: 5.3 ± 0.3 mmol/L
Blood glucose level prior to administration [2]: 7.1 ± 0.5 mmol/L

ASCNGVCSPFEMPPCGTSACRCIPVGLVIGYCRNPSG (disulfide 15-32, 3-20, 7-22; listed as Pisum sativum) [SEQ ID No. 3]
Blood glucose level at 15 min after administration ([3]; Group A, tail vein injection): 5.6 ± 0.3 mmol/L
Blood glucose level at 30 min after administration ([3]; Group A, tail vein injection): 4.5 ± 0.2 mmol/L
Blood glucose level at 45 min after administration ([3]; Group A, tail vein injection): 3.2 ± 0.1 mmol/L
Blood glucose level at 60 min after administration ([3]; Group A, tail vein injection): 2.4 ± 0.2 mmol/L
Blood glucose level prior to administration ([3]; Group A, tail vein injection): 7.3 ± 0.5 mmol/L
Blood glucose level at 15 min after administration [3, 6]: 5.2 ± 0.2 mmol/L
Blood glucose level at 30 min after administration [3, 6]: 3.5 ± 0.3 mmol/L
Blood glucose level at 45 min after administration [3, 6]: 2.8 ± 0.2 mmol/L
Blood glucose level at 60 min after administration [3, 6]: 2.1 ± 0.1 mmol/L
Blood glucose level prior to administration [3, 6]: 6.2 ± 0.3 mmol/L
Blood glucose level at 15 min after administration [3, 7]: 6.3 ± 0.5 mmol/L
Blood glucose level at 30 min after administration [3, 7]: 4.8 ± 0.4 mmol/L
Blood glucose level at 45 min after administration [3, 7]: 3.5 ± 0.3 mmol/L
Blood glucose level at 60 min after administration [3, 7]: 2.6 ± 0.2 mmol/L
Blood glucose level prior to administration [3, 7]: 8.1 ± 0.7 mmol/L

ASCNGVCSPFEMoxPPCGSSACRCIPVGLLIGYCRNPSG (ASCNGVCSPFE[Met(O)]PPCGSSACRCIPVGLLIGYCRNPSG; disulfide 15-32, 3-20, 7-22; listed as Pisum sativum) [SEQ ID No. 6]
Blood glucose level at 15 min after administration [2]: 5.6 ± 0.3 mmol/L
Blood glucose level at 30 min after administration [2]: 4.2 ± 0.3 mmol/L
Blood glucose level prior to administration [2]: 6.6 ± 0.4 mmol/L

ASCNGVCSPFEMoxPPCGTSACRCIPVGLFIGYCRNPSG (ASCNGVCSPFE[Met(O)]PPCGTSACRCIPVGLFIGYCRNPSG; disulfide 15-32, 3-20, 7-22; listed as Pisum sativum) [SEQ ID No. 8]
Blood glucose level at 15 min after administration [4, 8]: 5.1 ± 0.4 mmol/L
Blood glucose level at 30 min after administration [4, 8]: 3.0 ± 0.4 mmol/L
Blood glucose level at 45 min after administration [4, 8]: 2.2 ± 0.2 mmol/L
Blood glucose level at 60 min after administration [4, 8]: 1.7 ± 0.1 mmol/L
Blood glucose level prior to administration [4, 8]: 7.4 ± 0.5 mmol/L
Blood glucose level at 15 min after administration [4, 9]: 5.2 ± 0.4 mmol/L
Blood glucose level at 30 min after administration [4, 9]: 4.3 ± 0.5 mmol/L
Blood glucose level at 45 min after administration [4, 9]: 3.2 ± 0.3 mmol/L
Blood glucose level at 60 min after administration [4, 9]: 2.6 ± 0.2 mmol/L
Blood glucose level prior to administration [4, 9]: 7.1 ± 0.6 mmol/L
Blood glucose level at 15 min after administration [4, 10]: 6.2 ± 0.3 mmol/L
Blood glucose level at 30 min after administration [4, 10]: 4.9 ± 0.3 mmol/L
Blood glucose level at 45 min after administration [4, 10]: 3.8 ± 0.2 mmol/L
Blood glucose level at 60 min after administration [4, 10]: 4.6 ± 0.2 mmol/L
Blood glucose level prior to administration [4, 10]: 7.3 ± 0.4 mmol/L
hypoglycemic activity (conclusion) ([4]; normal mice, subcutaneous injection): explicit hypoglycemic activity

ASCNGVCSPFEMoxPPCGTSACRCIPVGLVIGYCRNPSG (ASCNGVCSPFE[Met(O)]PPCGTSACRCIPVGLVIGYCRNPSG; disulfide 15-32, 3-20, 7-22; listed as Pisum sativum) [SEQ ID No. 4]
Blood glucose level at 15 min after administration [2]: 6.9 ± 0.4 mmol/L
Blood glucose level at 30 min after administration [2]: 4.6 ± 0.3 mmol/L
Blood glucose level prior to administration [2]: 7.5 ± 0.5 mmol/L

ASCNGVCSPFEMoxPPCGTSACRCIPVGLVVGYCRNPSG (ASCNGVCSPFE[Met(O)]PPCGTSACRCIPVGLVVGYCRNPSG; disulfide 15-32, 3-20, 7-22; listed as Pisum sativum) [SEQ ID No. 2]
Blood glucose level at 15 min after administration [2]: 6.5 ± 0.2 mmol/L
Blood glucose level at 30 min after administration [2]: 4.6 ± 0.3 mmol/L
Blood glucose level prior to administration [2]: 7.2 ± 0.3 mmol/L

ISCNGVCSPFDIPPCGSPLCRCIPAGLVIGNCRNPYG (disulfide 15-32, 3-20, 7-22; listed as Pisum sativum) [SEQ ID No. 11]
hypoglycemic effect compared with insulin ([5]; polypeptide 10 mg/kg vs insulin 2.5 U/kg, tail vein injection): the same hypoglycemic effect on normal mice as insulin
Blood glucose level at 15 min after administration [5, 11]: 4.1 ± 0.3 mmol/L
Blood glucose level at 30 min after administration [5, 11]: 2.8 ± 0.2 mmol/L
Blood glucose level at 45 min after administration [5, 11]: 2.2 ± 0.1 mmol/L
Blood glucose level at 60 min after administration [5, 11]: 2.0 ± 0.1 mmol/L
Blood glucose level prior to administration ([5]; single tail vein injection, polypeptide 2 mg/mL at 0.05 ml/10 g (10 mg/kg), insulin 0.5 U/mL (2.5 U/kg), baseline): 8.2 ± 0.5 mmol/L

ISCNGVCSPFDIPPCGTPLCRCIPAGLFVGKCRNPYG (disulfide 15-32, 3-20, 7-22) [SEQ ID No. 36]
Blood glucose level at 15 min after administration [1]: 6.2 ± 0.4 mmol/L
Blood glucose level at 30 min after administration [1]: 4.3 ± 0.3 mmol/L
Blood glucose level at 45 min after administration [1]: 3.5 ± 0.2 mmol/L
Blood glucose level at 60 min after administration [1]: 2.8 ± 0.1 mmol/L
Blood glucose level prior to administration [1]: 7.1 ± 0.5 mmol/L

ISCNGVCSPFDMPPCGSPACRCIPAGLLIGYCRNPSG (disulfide 15-32, 3-20, 7-22) [SEQ ID No. 38]
Blood glucose level at 15 min after administration [1]: 4.9 ± 0.3 mmol/L
Blood glucose level at 30 min after administration [1]: 3.6 ± 0.4 mmol/L
Blood glucose level at 45 min after administration [1]: 3.1 ± 0.2 mmol/L
Blood glucose level at 60 min after administration [1]: 3.5 ± 0.3 mmol/L
Blood glucose level prior to administration [1]: 6.3 ± 0.5 mmol/L

ISCNGVCSPFEIPPCGSSLCRCIPAGLLVGKCRNPSG (disulfide 15-32, 3-20, 7-22) [SEQ ID No. 44]
Blood glucose level at 15 min after administration [1]: 6.3 ± 0.3 mmol/L
Blood glucose level at 30 min after administration [1]: 5.5 ± 0.2 mmol/L
Blood glucose level at 45 min after administration [1]: 3.8 ± 0.3 mmol/L
Blood glucose level at 60 min after administration [1]: 2.6 ± 0.2 mmol/L
Blood glucose level prior to administration [1]: 7.2 ± 0.3 mmol/L

ISCNGVCSPFEMPPCGTSLCRCIPAGLVVGYCRNPSG (disulfide 15-32, 3-20, 7-22) [SEQ ID No. 50]
Blood glucose level at 15 min after administration [1]: 6.2 ± 0.5 mmol/L
Blood glucose level at 30 min after administration [1]: 5.3 ± 0.2 mmol/L
Blood glucose level at 45 min after administration [1]: 4.6 ± 0.3 mmol/L
Blood glucose level at 60 min after administration [1]: 3.2 ± 0.3 mmol/L
Blood glucose level prior to administration [1]: 7.3 ± 0.6 mmol/L

VSCNGVCSPFDIPPCGTPACRCIPYGLFVGNCRNPYG (disulfide 15-32, 3-20, 7-22) [SEQ ID No. 52]
Blood glucose level at 15 min after administration [1]: 6.4 ± 0.4 mmol/L
Blood glucose level at 30 min after administration [1]: 5.4 ± 0.5 mmol/L
Blood glucose level at 45 min after administration [1]: 4.3 ± 0.3 mmol/L
Blood glucose level at 60 min after administration [1]: 2.9 ± 0.3 mmol/L
Blood glucose level prior to administration [1]: 7.1 ± 0.3 mmol/L

VSCNGVCSPFDMPPCGTSACRCIPAGLFIGYCRNPSG (disulfide 15-32, 3-20, 7-22) [SEQ ID No. 61]
Blood glucose level at 15 min after administration [1]: 5.6 ± 0.4 mmol/L
Blood glucose level at 30 min after administration [1]: 4.3 ± 0.3 mmol/L
Blood glucose level at 45 min after administration [1]: 3.6 ± 0.2 mmol/L
Blood glucose level at 60 min after administration [1]: 2.3 ± 0.1 mmol/L
Blood glucose level prior to administration [1]: 6.9 ± 0.4 mmol/L

VSCNGVCSPFEIPPCGSPLCRCIPAGLVIGNCRNPYG (disulfide 15-32, 3-20, 7-22) [SEQ ID No. 63]
Blood glucose level at 15 min after administration [1]: 5.9 ± 0.5 mmol/L
Blood glucose level at 30 min after administration [1]: 4.6 ± 0.4 mmol/L
Blood glucose level at 45 min after administration [1]: 3.2 ± 0.3 mmol/L
Blood glucose level at 60 min after administration [1]: 3.5 ± 0.2 mmol/L
Blood glucose level prior to administration [1]: 6.6 ± 0.6 mmol/L

VSCNGVCSPFEMPPCGSSACRCIPYGLVVGNCRNPSG (disulfide 15-32, 3-20, 7-22) [SEQ ID No. 68]
Blood glucose level at 15 min after administration [1]: 5.5 ± 0.4 mmol/L
Blood glucose level at 30 min after administration [1]: 4.2 ± 0.3 mmol/L
Blood glucose level at 45 min after administration [1]: 3.4 ± 0.4 mmol/L
Blood glucose level at 60 min after administration [1]: 2.2 ± 0.1 mmol/L
Blood glucose level prior to administration [1]: 6.7 ± 0.6 mmol/L
